This note sets out measurements from patent publication US20100160443A1, “COMPOUNDS USEFUL FOR TREATING NEUROLOGICAL DISORDERS” (Yissum Research Development Company of The Hebrew …, priority 2003, published 2010).

The term CL/F denotes clearance divided by bioavailability, as obtained after extravascular dosing. As a reminder, the Cmax is the maximum level reached in the sampled fluid or tissue. A word on the MRT: it is a mean duration of stay, worked out from the concentration-time curve. What is called Tmax is the time at which the peak concentration occurs. What is called half-life is the time needed for the level to fall by half in the phase considered. A lower half-life goes with fast loss.

The data set can be described thus: Plasma drug concentration and pharmacokinetics after i.p. administration to SNL operated rats. Type of data set: in vivo, rat. The conditions noted are these: for minimal plasma concentration associated with the antiallodynic effect: SNL rats; for CL/F / Cmax / MRT / Tmax / half-life: rat, ip. As to the method:
0.5% MC, and […] of blood were collected from the amputated tail tip at each of three time points after injection. Blood was withdrawn for group 1 at 15, 60 and 180 min after dosing; for group 2 at 30, 90 and 240 min after dosing and for group 3 at 45, 120 and 360 min after dosing. Plasma was immediately separated by centrifugation at 3000 g for 15 min and stored at −20° C. until analyzed.
Plasma levels of VPA and DID were determined by gas chromatography (GC). An HP5890 series II GC equipped with FID detector, HP7673 autosampler, for DID HP-5 capillary column (0.25 μm×15 m×0.25 mm) was used. The temperature program was as follows: injector temperature 250° C.; initial temperature, 60° C. for 3 min; gradient of 15° C. min-1 until 180° C.; hold 5 min. For each drug, plasma levels obtained from 3 rats at each time point were averaged. 25 μl of internal standard solution (50 mg L^−1 of VPD for the DID assay) and 200 μl of 0.1M NaOH were added to 50 μl of plasma. The mixture was vortexed, and 1 ml of chloroform was added. The phases were separated, and the chloroform was evaporated. The dry residue was redissolved in 50 μl of chloroform, and 1 μl was injected into the gas chromatograph. Calibration curves were prepared separately by spiking naïve rat plasma samples with 1.56, 2.5, 3.12, 6.25, 12.5, 25.0, 37.5, 50.0, 75.0 and 100.0 mg L^−1 of DID. The limit of quantification (LOQ) of the method was 1.56 μg/ml, and the coefficient of variation (CV %) was <15% at all analyzed concentrations including LOQ.
The temperature program was as follows: injector temperature 280° C.; oven temperature, 135° C. 30 μl of internal standard solution (250 mg L-1 of 1-methyl-1cyclohexane carboxylic acid, MCCA, in MeOH) and 125 μl of 5N Hydrochloric acid (HCl) were added to 250 μl of plasma. The mixture was vortexed, and 2 ml of chloroform was added. The phases were separated, and the 1 ml of NaOH was added. 200 μl of HCl 5N and 2 ml of chloroform were added to the aqueous phase. The organic layer was evaporated and dry residue was redissolved in 50 μl of chloroform, and 30 μl was injected into the gas chromatograph. […] LOQ of the method was 25 mg L-1, and the coefficient of variation (CV %) was <15% at all analyzed concentrations including LOQ.
PK parameters were determined by non-compartmental analysis using the pharmacokinetic software package WinNonlin, version 4.0.1 (SCI Software, Lexington, Ky., U.S.A.; Yamaoka, et al., 1978 (YAMAOKA, K., […], T., & UNO, T. (1978). Statistical moments in pharmacokinetics. J Pharmacokinet. Biopharm., 6, 547-558); Gibaldi & Perrier, 1982 (GIBALDI, M., & PERRIER, D. (1982). Pharmacokinetics (2nd ed.). pp. 199-219 Marcel Dekker: New York); Rowland & Tozer, 1995 (ROWLAND, M., & TOZER, T. (1995). Pharmacological Response. In: Clinical Pharamcokeintics. pp. 340-365) Baltimore: Williams & Wilkins)). The terminal half-life (t½) was calculated as 0.693/β, where β is the linear terminal slope of the concentration (C)-versus-time curve. The area under the C-versus-time curve (AUC) was calculated by trapezoidal rule with extrapolation to infinity. The mean residence time (MRT) was calculated from the quotient AUMC/AUC, where AUMC is the area under the concentration-time product versus time curve from zero to infinity. Total (apparent) clearance (CL/F) was calculated from the quotient of […] with F being the absolute bioavailability following i.p. administration. The apparent volume of distribution (Vβ/F) was calculated from the quotient of CL and β. The peak plasma concentration (Cmax) and the time to reach Cmax (tmax) were determined empirically by visual inspection.

Where [1] appears, read: DID 40 mg kg^−1 i.p., plasma, SNL operated rats.

As to `CC(C)C(C(N)=O)C(C)C` [DID, diisopropylacetamide], the “minimal plasma concentration associated with the antiallodynic effect” value (DID 40 mg kg^−1 i.p.) worked out at 7 mg/L. Under setting [1], this compound showed a Vβ/F of 1.2 L/kg, an apparent clearance CL/F of 8.33 mL/min/kg, a Cmax of 28 µg/mL and a mean residence time MRT of 2.4 h. Besides, under setting [1], the Tmax was 0.25 h and the half-life is 1.5 h.
Consider `CCCC(CCC)C(=O)O` [VPA, Valproic acid, reference compound], for which the “minimal plasma concentration associated with the antiallodynic effect” value (VPA 300 mg kg^−1 i.p.) is 125 mg/L. Besides, under “plasma, 300 mg/kg”, the apparent clearance (CL/F) was 3.33 mL/min/kg, the highest level (Cmax) was 515 µg/mL, the mean residence time (MRT) came to 5.8 h and the Tmax is 0.5 h. For the setting “plasma, 300 mg/kg”, this compound had a half-life of 4.6 h.
